# From patent publication EP0335331A1, “O- (1,2-Di-O-acetyl-glycero-3-phosphoryl)ethanolamine, a process for its preparation and its therapeutic use” (MAGIS FARMACEUTICI S.p.A., priority 1988, dated 1989)
# Assays:
# [1] = tested on: rat; test: olive oil-induced alteration of lipoprotein state, plasma cholesterol and triglycerides; format: in vivo; details: normally fed rat treated orally with 15 ml/kg of olive oil; greatest effect two hours after the olive oil treatment
# Method: The effect of the compound in terms of modifying the lipoprotein state and the plasma cholesterol and triglyceride levels, altered by oral administration of olive oil, was studied in normally fed rat treated orally with 15 ml/kg of olive oil at various concentrations.
# [2] = acute toxicity by the Weil method; details: in vivo, mouse, read-out: LD₅₀
# From the text: The acute toxicity of the compound of formula (I) was studied on the mouse by the Weil method [Weil C.S. Biometr. 8, 249 (1952)].
compound,measurement,setting,value
"CC(=O)OCC(COP(=O)(O)OCCN)OC(C)=O (centres unmarked) [compound of formula (I), O-(1,2-di-O-acetylglycero-3-phosphoryl)ethanolamine]","effect on increase in triglycerides and cholesterol, reduction in the α-lipoproteins and increase in the β and pre-β fractions",[1],"well antagonised by the compound, which proved able to return the parameters to normality"
same,LD50,[2],> 2000 mg/kg
